“And” between values parts separate entries of the source, which are not always exact repeats. Equal entries are not always repeated.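 Method: 48-hour compound exposure of cells in 96-well plates, five concentrations, linear interpolation of endpoints. Here, GI50 denotes the concentration required for 50% inhibition of growth. TGI denotes the concentration required for complete inhibition of growth.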 A value given as a limit tells only on which side of the number the result lay.

Holding throughout (experiment): DTP human tumour cell line panel, 48 h
The test system of test [1] is A549 NSCLC.
In test [2] the test system is BT-549 breast.
The test system of test [3] is DU-145 prostate.
Test [4] has as its system EKVX NSCLC.
Test [5] has as its system HCT-116 colon.
The subject of test [6] is NCI-H226 lung.
In test [7] the test system is NCI-H522 lung.
In test [8] the test system is SF-295 CNS.
The test system of test [9] is SK-MEL-5 melanoma.
Test [10] relates to SW-620 colon.

For orientation: GI50 means the concentration at which growth is held to half of that of the control. As usually defined, the TGI is the concentration at which net growth stops. A low value points to more potent growth arrest. With `Nc1cccc2c1CN(C1CCC(=O)NC1=O)C2=O` (stereo not given), the GI50 in test [1], in test [2], in [3], in test [4], in test [5] and in [6] was more than 100000 nM throughout. Moreover, the GI50 in test [7], in [8], in test [9] and in test [10] was more than 100000 nM in each case. The total growth inhibition concentration (TGI) in test [1], in test [2], in test [3], in test [4], in [5] and in test [6] was more than 100000 nM each time. Further, the TGI in test [7], in test [8], in test [9] and in test [10] was more than 100000 nM in each case.

Consider `CC[C@@]1(OC(=O)C(N)CCC(=O)O)C(=O)OCc2c1cc1n(c2=O)Cc2cc3ccccc3nc2-1` (stereo not given in full), for which the TGI in test [1] is 3370 nM; in test [2], more than 100000 nM; in test [3], 50.4 nM; in test [4], more than 57800 nM; in [5], more than 100000 nM; in test [6], 192 nM. The TGI in [7] is 2030 nM; in [8], 446 nM; in test [9], 360 nM; in [10] it was more than 21100 nM.

Consider `COc1cccc(C(C#N)NC23CC4CC(CC(C4)C2)C3)c1` (stereo not given), for which the total growth inhibition concentration (TGI) in test [1], in test [2], in [3], in [4], in test [5] and in test [6] was more than 100000 nM throughout. Moreover, the concentration for total growth inhibition (TGI) in [7], in [8], in test [9] and in test [10] was more than 100000 nM each time.

Regarding `O=C1c2ccccc2C(=O)c2c(NCCNCCO)ccc(NCCNCCO)c21`, the 50% growth inhibitory concentration (GI50) in [1] is 195 nM and 183 nM and 123 nM; in test [2] it was 2980 nM and 7280 nM and 6250 nM; in [3], 718 nM and 1410 nM and 1290 nM; in test [4], 1970 nM and 3650 nM; in [5], 715 nM and 908 nM and 934 nM; in test [6] it was 232 nM and 281 nM and 470 nM. For the same molecule, the GI50 was 482 nM and 452 nM and 267 nM in test [7]; 416 nM and 655 nM and 890 nM in test [8]; 1410 nM and 1130 nM and 1090 nM in test [9]; 1150 nM and 1080 nM and 838 nM in test [10]. Also, the TGI in test [1] is 6920 nM and 9370 nM and 6340 nM; in test [2] it was 14900 nM and 20700 nM and 21700 nM; in test [3], 4890 nM and 8280 nM and 8690 nM; in test [4], 10400 nM and 26300 nM; in test [5], 6790 nM and 6810 nM and 11200 nM; in [6], 2240 nM and 3350 nM and 5400 nM. For the same molecule, the TGI was 5480 nM and 2220 nM and 1320 nM in [7]; 4470 nM and 9660 nM and 9970 nM in test [8]; 3340 nM and 2870 nM and 2860 nM in test [9]; 11800 nM and 13500 nM and 11300 nM in test [10].

In the case of `Nc1ncnc2c1nc(N)n2C1OC(CO)C(O)C1O` (stereo not given), the GI50 in test [1] is 331 nM; in test [2] it was 1650 nM; in test [3], 401 nM; in test [4] it was 231 nM; in [5], 302 nM; in test [6] it was 1030 nM. For the same molecule, the GI50 in test [7] was 809 nM; in test [8], 1780 nM; in test [9], 1250 nM; in test [10], 182 nM. For the same molecule, the TGI in test [1] worked out at 2020 nM; in test [2] it was 3360 nM; in test [3], 2090 nM; in [4], 1270 nM; in test [5] it was 10500 nM; in test [6] it was 3380 nM. Also, the TGI in [7] is 2610 nM; in test [8], 6090 nM; in test [9] it was 2610 nM; in test [10], 1310 nM.

For the molecule `COC(=O)c1c2c(c(C)[n+]([O-])c1C)C(=O)C=C(NCc1ccc(Br)cc1)C2=O`, the GI50 is 705 nM in [1]; 1150 nM in test [2]; 871 nM in [3]; 763 nM in test [4]; 173 nM in [5]; 1300 nM in test [6]. In addition, the GI50 in test [7] was 1230 nM; in test [8], 242 nM; in [9], 201 nM; in test [10], 170 nM. Further, the TGI in test [1] turned out to be 2740 nM; in [2], 2530 nM; in [3], 2260 nM; in [4], 2370 nM; in [5], 667 nM; in test [6] it was 2980 nM. Moreover, the concentration for total growth inhibition (TGI) in test [7] amounted to 4110 nM; in test [8], 1320 nM; in test [9], 435 nM; in test [10], 1710 nM.

`CS(=O)/C(C#N)=C\C=C\c1cccc(Cl)c1` (stereo not given): the GI50 in test [1] is 2990 nM; in test [2], 2000 nM; in [3], 1450 nM; in test [4], 3660 nM; in [5] it was 1120 nM; in [6], 5020 nM. Further, the GI50 in [7] is 1960 nM; in [8], 3050 nM; in test [9], 1870 nM; in test [10], 2710 nM. In addition, the TGI in [1] was found to be 16800 nM; in [2], 11900 nM; in test [3], 3320 nM; in test [4] it was 16700 nM; in test [5], 4730 nM; in test [6], 20300 nM. Besides, the TGI in [7] amounted to 5650 nM; in [8], 10700 nM; in test [9], 3960 nM; in [10], 11600 nM.

Take `O=Cc1c[nH]c2ccc(-c3csc4ccccc34)cc12`: the GI50 is 4290 nM in test [1]; 2500 nM in test [2]; 3180 nM in [3]; 2750 nM in test [4]; 3600 nM in [5]; 3700 nM in test [6]. Also, the GI50 in test [7] was 3230 nM; in test [8] it was 2640 nM; in test [9] it was 3310 nM; in test [10], 4310 nM. The total growth inhibition concentration (TGI) was more than 100000 nM in test [1]; 8750 nM in [2]; 22200 nM in [3]; more than 100000 nM in test [4]; more than 100000 nM in [5]; more than 100000 nM in [6]. The TGI in [7] is more than 100000 nM; in [8], 13100 nM; in test [9] it was more than 100000 nM; in [10], more than 100000 nM.

Values taken from PubChem BioAssay (NCI).
